# How the values were obtained:
# [1] = cited from earlier work
# [2] = Thermal stability of the oxycarbonyl-substituted piperazine derivative (standing at temperature, liquid chromatography purity); assay type: physicochemical
# Experimental: It was confirmed that the stability of the compound is greatly affected by the temperature and the heating time period.
# It was noticed that when, for example, 1-benzyloxycarbonyl-3-methylpiperazine with a purity of 99.3 liquid chromatography area % was allowed to stand at 120° C., 160° C. or 200° C. for 12 hours, their liquid chromatography purity declined to 99.0 liquid chromatography area %, 95.6 liquid chromatography area % and 59.7 liquid chromatography area % respectively, and that the liquid chromatography purity of 1-benzyl-4-benzyloxycarbonyl-2-methylpiperazine corresponding to the compound represented by the general formula (7) rose to 0.2 liquid chromatography area %, 3.2 liquid chromatography area % and 30.7 liquid chromatography area % respectively.
# Furthermore, when the compound was allowed to stand at 160° C. for 1 hour, the purity was 98.8 liquid chromatography area %, and it can be seen that the decomposition rate was small compared with the case of 12 hours.
# For measuring the contents of the impurities contained in the oxycarbonyl-substituted piperazine derivative represented by the general formula (2), liquid chromatography is used. The analytical column for liquid chromatography used for analysis is a column using an octadecyl -based composition as a packing material. Particularly the use of Capcellpak C18, 120 angstroms, 5 μm, 4.6 mm×150 mm (Shiseido) is desirable.
# The mobile phase is 5 mM sodium dodecyl sulfate (hereinafter abbreviated as SDS) aqueous solution (pH 2.5, phosphoric acid)/acetonitrile, and a gradient method for changing the composition with the lapse of time is used for analysis. That is, the acetonitrile content in the mobile phase is kept at 31 vol % from the start of analysis to 15 minutes later, and the acetonitrile content is then increased at a constant rate up to 45 vol %, taking 10 minutes, being kept at 45 vol % from 25 minutes later to 40 minutes later. The detector used is a UV measuring instrument, and the detection wavelength is 210 nm. The detection wavelength is very important, and if the detection wavelength is changed, the analyzed value may change. The reason is that the maximum wavelength of UV absorption changes depending on the compound. In this system, it is desirable that the wavelength is from 210 to 230 nm at which the ratios of the absorption sensitivity of the compound represented by the general formula (2) to the absorption sensitivities the compounds represented by the general formulae (5) to (8) are from 0.6 to 1.5. Analysis is made at a column oven temperature of 40° C. In the case where analysis is made under the above-mentioned analytical conditions, the retention times of 1-benzyloxycarbonyl-3-methylpiperazine and the impurities corresponding to the general formulae (5) to (8), i.e., 1,4-bis(carbobenzyloxy)-2-methylpiperazine, 1-benzyl-3-methylpiperazine, 4-benzyloxycarbonyl-1-benzyl-2-methylpiperazine and benzyl alcohol were 23.1 minutes, 31.0 minutes, 31.0 minutes, 30.0 minutes and 2.7 minutes respectively. The values of their area percentages can be used to obtain the impurity contents.
SMILES,pKa [1],Liquid chromatography purity of decomposition product 1-benzyl-4-benzyloxycarbonyl-2-methylpiperazine after standing ([2]; 120° C. for 12 hours),"Liquid chromatography purity after standing ([2]; 120° C. for 12 hours, starting purity 99.3 liquid chromatography area %)",Liquid chromatography purity after standing ([2]; 160° C. for 1 hour),Liquid chromatography purity of decomposition product 1-benzyl-4-benzyloxycarbonyl-2-methylpiperazine after standing ([2]; 160° C. for 12 hours),"Liquid chromatography purity after standing ([2]; 160° C. for 12 hours, starting purity 99.3 liquid chromatography area %)",Liquid chromatography purity of decomposition product 1-benzyl-4-benzyloxycarbonyl-2-methylpiperazine after standing ([2]; 200° C. for 12 hours),"Liquid chromatography purity after standing ([2]; 200° C. for 12 hours, starting purity 99.3 liquid chromatography area %)"
COc1ccccn1 [2-methoxypyridine],6.62,–,–,–,–,–,–,–
c1cn[nH]c1 [pyrazole],2.5,–,–,–,–,–,–,–
CC1CN(C(=O)OCc2ccccc2)CCN1 (stereo not drawn) [1-benzyloxycarbonyl-3-methylpiperazine],–,0.2 liquid chromatography area %,99.0 liquid chromatography area %,98.8 liquid chromatography area %,3.2 liquid chromatography area %,95.6 liquid chromatography area %,30.7 liquid chromatography area %,59.7 liquid chromatography area %
